Measurements from ChEMBL document CHEMBL4476870, “Arf6 inhibitors and methods of synthesis and use thereof” (2017).
Calls of active or inactive are those of the source. No cut-off for these calls is given here.

Assays:
[1] = species: Homo sapiens; assay: Antiinvasive activity against human LOX cells assessed as inhibition of 5% FBS-induced cell invasion at 30 uM by Matrigel based cell invasion assay; assay type: functional
[2] = test system: Mus musculus; assay: Inhibition of choroidal neovascularization in mouse with laser-induced Bruch's membrane disruption at 5 ug dosed on day 0 and 7 and measured on day 14; assay type: functional, organism-based
[3] = test system: Mus musculus; assay: Inhibition of VEGF-induced retinal permeability in mouse at 5 ug dosed as single intraocular injection followed by Evan blue dye injection 6 hrs post drug dose and measured after 2 hrs; assay type: functional, organism-based
[4] = test system: Mus musculus; assay: Reduction in oxygen-induced retinopathy in mouse placed in 75% oxygen-environment from day 5 to 12 assessed as reduction in neovascularization at 5 ug dosed via intraocular injection on day 12 and 15 and measured on day 17; assay type: functional, organism-based
[5] = test system: Rattus norvegicus; assay: Inhibition of VEGF-induced retinal permeability in rat assessed as reduction in vascular leak at 60 mg/kg, ip dosed 1 hr before VEGF injection on day1 followed by Evan blue dye injection on day2 and measured on day 3; assay type: functional, organism-based
[6] = test system: Mus musculus; assay: Inhibition of VEGF-induced retinal permeability in mouse at 50 ng dosed as single intraocular injection followed by Evan blue dye injection 6 hrs post drug dose and measured after 2 hrs; assay type: functional, organism-based
[7] = test system: Mus musculus; assay: Inhibition of VEGF-induced retinal permeability in mouse at 500 ng dosed as single intraocular injection followed by Evan blue dye injection 6 hrs post drug dose and measured after 2 hrs; assay type: functional, organism-based
[8] = test system: LN-229; assay: Antiproliferative activity against human LN229 cells assessed as inhibition of cell proliferation at >1 uM by WST8 dye based colorimetric assay; assay type: functional
[9] = species: Homo sapiens; assay: Antiproliferative activity against human LOX cells assessed as inhibition of cell proliferation at >1 uM by WST8 dye based colorimetric assay; assay type: functional
[10] = biological target: PH and SEC7 domain-containing protein 1 (Mus musculus) (UniProt Q5DTT2); assay: Inhibition of Arf6 activation in mouse NIH/3T3 cells assessed as effect on GTP-bound Arf6 incubated for 4 hrs immobilized GST-tagged Gga3 by based pull down assay; assay type: cell-based
Sequence of PH and SEC7 domain-containing protein 1 (Mus musculus) (Q5DTT2 whole entry, the tested form may be a part): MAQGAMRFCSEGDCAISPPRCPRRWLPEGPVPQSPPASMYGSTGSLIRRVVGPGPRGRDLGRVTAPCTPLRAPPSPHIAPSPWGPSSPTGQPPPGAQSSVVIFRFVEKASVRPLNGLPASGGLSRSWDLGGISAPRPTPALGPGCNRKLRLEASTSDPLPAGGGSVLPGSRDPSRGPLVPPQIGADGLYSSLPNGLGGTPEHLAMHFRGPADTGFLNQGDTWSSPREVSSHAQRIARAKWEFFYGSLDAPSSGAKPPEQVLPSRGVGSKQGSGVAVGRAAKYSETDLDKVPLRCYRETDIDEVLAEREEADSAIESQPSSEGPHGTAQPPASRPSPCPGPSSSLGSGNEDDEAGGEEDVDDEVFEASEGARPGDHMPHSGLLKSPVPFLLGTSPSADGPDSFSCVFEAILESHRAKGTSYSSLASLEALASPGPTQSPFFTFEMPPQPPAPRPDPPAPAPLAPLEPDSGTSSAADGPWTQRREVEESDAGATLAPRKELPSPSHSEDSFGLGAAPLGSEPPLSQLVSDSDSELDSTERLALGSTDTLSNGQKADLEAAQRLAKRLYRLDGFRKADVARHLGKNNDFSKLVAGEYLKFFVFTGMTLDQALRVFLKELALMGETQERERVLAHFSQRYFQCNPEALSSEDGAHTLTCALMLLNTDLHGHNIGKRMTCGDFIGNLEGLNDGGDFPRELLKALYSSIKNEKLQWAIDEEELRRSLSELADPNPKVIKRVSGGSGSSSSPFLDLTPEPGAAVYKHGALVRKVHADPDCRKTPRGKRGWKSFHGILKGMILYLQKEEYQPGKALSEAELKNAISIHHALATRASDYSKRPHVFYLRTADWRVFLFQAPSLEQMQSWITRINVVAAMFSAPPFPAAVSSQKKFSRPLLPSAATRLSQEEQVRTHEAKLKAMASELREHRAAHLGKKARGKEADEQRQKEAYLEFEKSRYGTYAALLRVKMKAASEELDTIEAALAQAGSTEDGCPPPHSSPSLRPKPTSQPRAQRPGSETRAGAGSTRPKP

[11] = Antiinvasive activity against human LOX cells assessed as inhibition of 5% FBS-induced cell invasion at 1 uM by Matrigel based cell invasion assay; assay type: functional
[12] = test system: Mus musculus; assay: Inhibition of choroidal neovascularization in mouse with laser-induced Bruch's membrane disruption dosed on day 0 and 7 and measured on day 14; assay type: functional, organism-based
[13] = test system: Mus musculus; assay: Reduction in LPS-induced acute lung injury in mouse assessed as reduction in number of cells in BALF at 60 mg/kg dosed 3 hrs post LPS challenge; assay type: functional, organism-based
[14] = test system: Mus musculus; assay: Reduction in LPS-induced acute lung injury in mouse assessed as reduction in number of cells in BALF at 60 mg/kg dosed 4 hrs post LPS challenge; assay type: functional, organism-based
[15] = test system: Mus musculus; assay: Reduction in LPS-induced acute lung injury in mouse assessed as reduction in protein concentration at 60 mg/kg dosed 3 hrs post LPS challenge; assay type: functional, organism-based
[16] = test system: Mus musculus; assay: Reduction in LPS-induced acute lung injury in mouse assessed as reduction in protein concentration at 60 mg/kg dosed 4 hrs post LPS challenge; assay type: functional, organism-based
[17] = test system: Influenza A virus; assay: Antiviral activity against Influenza A virus (H1N1) infected in mouse assessed as reduction in virus-infection induced mortality by measuring mouse survival at 20 mg/kg, ip qd for 5 days dosed 4 hrs before virus infection; assay type: functional, organism-based
[18] = test system: Mus musculus; assay: Anti-inflammatory activity in mouse model of collagen-induced arthritis assessed as reduction in arthritic index at 10 to 60 mg/kg, BID for 14 days and measured up to 15 days post dose; assay type: functional, organism-based
[19] = test system: Mus musculus; assay: Reduction in LPS-induced acute lung injury in mouse assessed as reduction in number of cells in BALF at 5 mg/kg dosed 2 hrs post LPS challenge; assay type: functional, organism-based
[20] = test system: Mus musculus; assay: Reduction in LPS-induced acute lung injury in mouse assessed as reduction in protein concentration at 5 mg/kg dosed 2 hrs post LPS challenge; assay type: functional, organism-based

Structure (SMILES): COc1nc(-c2ccc3c(c2)OCO3)n(-c2ccc(NC(=O)CSc3ccccc3)cc2)n1
- inhibition [1]: Active

Structure (SMILES): CN(C)c1ccc(/C=C2/C(=O)Nc3ccccc32)cc1
- inhibition [2]: Active
- inhibition [3]: inactive
- inhibition [4]: Active

Structure (SMILES): O=c1cc(-c2ccc([N+](=O)[O-])cc2)[nH]c2c(-c3ccc(Cl)cc3)c(Cc3ccccc3)nn12
- inhibition [5]: Active
- inhibition [6]: Active
- inhibition [7]: Active
- inhibition [8]: Active
- inhibition [9]: Active
- inhibition [10]: Active
- inhibition at 1 µM [11]: 100%
- inhibition [12]: Dose-dependent effect
- inhibition [4]: Active
- inhibition [13]: Active
- inhibition [14]: Active
- inhibition [15]: Active
- inhibition [16]: Active

Structure (SMILES): O=c1cc(Cc2ccccc2)[nH]c2c(-c3ccc(Cl)cc3)c(C(F)(F)F)nn12
- inhibition [7]: Active
- Activity [17]: Active

Structure (SMILES): O=c1cc(-c2cccc(Oc3ccccc3)c2)[nH]c2c(-c3ccc(Cl)c(Cl)c3)c(C(F)(F)F)nn12
- inhibition [4]: Active
- Activity [18]: Dose-dependent effect

Structure (SMILES): C[C@@H]1C[C@H]2[C@@H]3CCC4=CC(=O)C=C[C@]4(C)[C@@]3(F)[C@@H](O)C[C@]2(C)[C@@]1(O)C(=O)CO
- inhibition [19]: Active
- inhibition [20]: Active

Structure (SMILES): COc1ccc(-c2c(Cc3ccccc3)nn3c(=O)cc(C)[nH]c23)cc1
- inhibition [7]: Active
